Measurements reported in ChEMBL document CHEMBL3124828, “A 2,6,9-hetero-trisubstituted purine inhibitor exhibits potent biological effects against multiple myeloma cells” (Bioorg Med Chem, 2013).
Activity calls are given as the source filed them.

Experiments:
OCI-AML2 = test: Cytotoxicity against human OCI-AML2 cells after 72 hrs by MTS assay; assay type: functional, cell-based
DU-145 = test: Cytotoxicity against human DU145 cells after 72 hrs by MTS assay; assay type: functional, cell-based
MDA-MB-468 = test: Cytotoxicity against human MDA-MB-468 cells after 72 hrs by MTS assay; assay type: functional, cell-based
[1] = molecular target: Signal transducer and activator of transcription 3 (Homo sapiens) (UniProt P40763); test: Displacement of FAM-GpYLPQTV-NH2 from full-length Stat3 SH2 domain (unknown origin) up to 400 uM by fluorescence polarization
Chain of Signal transducer and activator of transcription 3 (Homo sapiens) (P40763 whole entry, the tested form may be a part): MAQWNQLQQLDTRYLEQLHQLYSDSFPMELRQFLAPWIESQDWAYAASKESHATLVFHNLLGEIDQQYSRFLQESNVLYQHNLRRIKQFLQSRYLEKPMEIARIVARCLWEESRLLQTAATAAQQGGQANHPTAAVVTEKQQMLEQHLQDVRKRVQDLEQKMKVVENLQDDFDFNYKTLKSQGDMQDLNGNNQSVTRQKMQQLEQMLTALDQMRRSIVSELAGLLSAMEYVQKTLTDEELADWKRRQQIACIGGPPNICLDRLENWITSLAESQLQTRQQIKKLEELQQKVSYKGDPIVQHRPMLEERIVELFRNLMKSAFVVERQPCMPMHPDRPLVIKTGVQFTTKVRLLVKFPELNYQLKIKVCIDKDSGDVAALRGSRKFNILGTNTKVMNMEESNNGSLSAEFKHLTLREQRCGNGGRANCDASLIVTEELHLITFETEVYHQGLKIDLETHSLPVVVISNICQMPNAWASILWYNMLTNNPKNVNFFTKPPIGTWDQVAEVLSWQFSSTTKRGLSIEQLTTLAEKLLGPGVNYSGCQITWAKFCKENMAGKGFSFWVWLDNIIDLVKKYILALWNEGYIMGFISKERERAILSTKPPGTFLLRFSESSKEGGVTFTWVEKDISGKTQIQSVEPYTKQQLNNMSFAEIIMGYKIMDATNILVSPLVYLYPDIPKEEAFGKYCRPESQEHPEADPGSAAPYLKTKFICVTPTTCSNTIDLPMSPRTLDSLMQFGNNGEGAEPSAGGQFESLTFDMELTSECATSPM

CC(C)CNc1nc(NCc2ccc(C3CCCCC3)cc2)nc2c1ncn2CCc1nnn[nH]1
inactive: Activity (OCI-AML2) | Activity (DU-145) | Activity (MDA-MB-468)

NS(=O)(=O)OCCn1cnc2c(NC3CCCC3)nc(NCc3ccc(C4CCCCC4)cc3)nc21
inactive: Activity (OCI-AML2) | Activity (DU-145) | Activity (MDA-MB-468)

O=C(Nc1nc(N2CCOCC2)c2ncn(CCc3nnn[nH]3)c2n1)C1CCCCC1
inactive: Activity (OCI-AML2) | Activity (DU-145) | Activity (MDA-MB-468)

CC(C)CCNc1nc(NCc2ccc(C3CCCCC3)cc2)nc2c1ncn2CCc1nnn[nH]1
inactive: Activity (OCI-AML2) | Activity (DU-145) | Activity (MDA-MB-468)

c1cc(C2CCCCC2)ccc1CNc1nc(NC2CCCC2)c2ncn(CCc3nnn[nH]3)c2n1
inactive: Activity (OCI-AML2) | Activity (DU-145) | Activity (MDA-MB-468)

c1cc(C2CCCCC2)ccc1CNc1nc(N2CCOCC2)c2ncn(CCc3nnn[nH]3)c2n1
inactive: Activity (OCI-AML2) | Activity (DU-145) | Activity (MDA-MB-468)

Fc1ccc(Nc2nc(NCc3ccc(C4CCCCC4)cc3)nc3c2ncn3CCc2nnn[nH]2)cc1
inactive: inhibition [1] | Activity (OCI-AML2) | Activity (DU-145) | Activity (MDA-MB-468)

CC(=O)OCOC(=O)Cn1cnc2c(N3CCOCC3)nc(NCc3ccc(C4CCCCC4)cc3)nc21
inactive: Activity (OCI-AML2) | Activity (DU-145) | Activity (MDA-MB-468)

CC(C)CCNc1nc(NCc2ccc(C3CCCCC3)cc2)nc2c1ncn2CCOS(N)(=O)=O
inactive: Activity (OCI-AML2) | Activity (DU-145) | Activity (MDA-MB-468)

NS(=O)(=O)OCCn1cnc2c(Oc3ccc([N+](=O)[O-])cc3)nc(NCc3ccc(C4CCCCC4)cc3)nc21
inactive: Activity (OCI-AML2) | Activity (DU-145) | Activity (MDA-MB-468)

CCOC(=O)Cn1cnc2c(Nc3ccc(F)cc3)nc(NCc3ccc(C4CCCCC4)cc3)nc21
inactive: inhibition [1] | Activity (OCI-AML2) | Activity (DU-145) | Activity (MDA-MB-468)

CC(C)CNc1nc(NCc2ccc(C3CCCCC3)cc2)nc2c1ncn2CCOS(N)(=O)=O
inactive: Activity (OCI-AML2) | Activity (DU-145) | Activity (MDA-MB-468)

CC(=O)OCOC(=O)Cn1cnc2c(NCC(C)C)nc(NCc3ccc(C4CCCCC4)cc3)nc21
inactive: Activity (OCI-AML2) | Activity (DU-145) | Activity (MDA-MB-468)

CC(=O)OCOC(=O)Cn1cnc2c(NCc3ccco3)nc(NCc3ccc(C4CCCCC4)cc3)nc21
inactive: Activity (OCI-AML2) | Activity (DU-145) | Activity (MDA-MB-468)

NS(=O)(=O)OCCn1cnc2c(N3CCOCC3)nc(NC(=O)C3CCCCC3)nc21
inactive: inhibition [1] | Activity (OCI-AML2) | Activity (DU-145) | Activity (MDA-MB-468)

CCOC(=O)Cn1cnc2c(NCC(C)C)nc(NCc3ccc(C4CCCCC4)cc3)nc21
inactive: Activity (OCI-AML2) | Activity (DU-145) | Activity (MDA-MB-468)

CC(C)(C)C(=O)OCOC(=O)Cn1cnc2c(Oc3ccc([N+](=O)[O-])cc3)nc(NCc3ccc(C4CCCCC4)cc3)nc21
inactive: Activity (OCI-AML2) | Activity (DU-145) | Activity (MDA-MB-468)

NS(=O)(=O)OCCn1cnc2c(N3CCOCC3)nc(NCc3ccc(C4CCCCC4)cc3)nc21
inactive: Activity (OCI-AML2) | Activity (DU-145) | Activity (MDA-MB-468)

CC(=O)OCOC(=O)Cn1cnc2c(N3CCOCC3)nc(NC(=O)C3CCCCC3)nc21
inactive: Activity (OCI-AML2) | Activity (DU-145) | Activity (MDA-MB-468)

CC(C)(C)C(=O)OCOC(=O)Cn1cnc2c(Nc3ccc(F)cc3)nc(NCc3ccc(C4CCCCC4)cc3)nc21
inactive: inhibition [1] | Activity (OCI-AML2) | Activity (DU-145) | Activity (MDA-MB-468)

CCOC(=O)Cn1cnc2c(NCc3ccco3)nc(NCc3ccc(C4CCCCC4)cc3)nc21
inactive: Activity (OCI-AML2) | Activity (DU-145) | Activity (MDA-MB-468)

CCOC(=O)Cn1cnc2c(N3CCOCC3)nc(NCc3ccc(C4CCCCC4)cc3)nc21
inactive: Activity (OCI-AML2) | Activity (DU-145) | Activity (MDA-MB-468)

CC(=O)OCOC(=O)Cn1cnc2c(Oc3ccc([N+](=O)[O-])cc3)nc(NCc3ccc(C4CCCCC4)cc3)nc21
inactive: Activity (OCI-AML2) | Activity (DU-145) | Activity (MDA-MB-468)

CC(C)CCNc1nc(NCc2ccc(C3CCCCC3)cc2)nc2c1ncn2CC(=O)OCOC(=O)C(C)(C)C
inactive: Activity (OCI-AML2) | Activity (DU-145) | Activity (MDA-MB-468)

c1coc(CNc2nc(NCc3ccc(C4CCCCC4)cc3)nc3c2ncn3CCc2nnn[nH]2)c1
inactive: inhibition [1] | Activity (OCI-AML2) | Activity (DU-145) | Activity (MDA-MB-468)

CC(C)(C)C(=O)OCOC(=O)Cn1cnc2c(N3CCOCC3)nc(NC(=O)C3CCCCC3)nc21
inactive: Activity (OCI-AML2) | Activity (DU-145) | Activity (MDA-MB-468)

CC(C)(C)C(=O)OCOC(=O)Cn1cnc2c(NCc3ccco3)nc(NCc3ccc(C4CCCCC4)cc3)nc21
inactive: Activity (OCI-AML2) | Activity (DU-145) | Activity (MDA-MB-468)

CC(C)(C)C(=O)OCOC(=O)Cn1cnc2c(N3CCOCC3)nc(NCc3ccc(C4CCCCC4)cc3)nc21
inactive: Activity (OCI-AML2) | Activity (DU-145) | Activity (MDA-MB-468)

NS(=O)(=O)OCCn1cnc2c(NCc3ccco3)nc(NCc3ccc(C4CCCCC4)cc3)nc21
inactive: Activity (OCI-AML2) | Activity (DU-145) | Activity (MDA-MB-468)

CCOC(=O)Cn1cnc2c(NCCC(C)C)nc(NCc3ccc(C4CCCCC4)cc3)nc21
inactive: Activity (OCI-AML2) | Activity (DU-145) | Activity (MDA-MB-468)

CC(=O)OCOC(=O)Cn1cnc2c(NC3CCCC3)nc(NCc3ccc(C4CCCCC4)cc3)nc21
inactive: Activity (OCI-AML2) | Activity (DU-145) | Activity (MDA-MB-468)

O=[N+]([O-])c1ccc(Oc2nc(NCc3ccc(C4CCCCC4)cc3)nc3c2ncn3CCc2nnn[nH]2)cc1
inactive: Activity (OCI-AML2) | Activity (DU-145) | Activity (MDA-MB-468)

CC(=O)OCOC(=O)Cn1cnc2c(Nc3ccc(F)cc3)nc(NCc3ccc(C4CCCCC4)cc3)nc21
inactive: inhibition [1] | Activity (OCI-AML2) | Activity (DU-145) | Activity (MDA-MB-468)

CCOC(=O)Cn1cnc2c(NC3CCCC3)nc(NCc3ccc(C4CCCCC4)cc3)nc21
inactive: Activity (OCI-AML2) | Activity (DU-145) | Activity (MDA-MB-468)

CC(=O)OCOC(=O)Cn1cnc2c(NCCC(C)C)nc(NCc3ccc(C4CCCCC4)cc3)nc21
inactive: Activity (OCI-AML2) | Activity (DU-145) | Activity (MDA-MB-468)

CCOC(=O)Cn1cnc2c(Oc3ccc([N+](=O)[O-])cc3)nc(NCc3ccc(C4CCCCC4)cc3)nc21
inactive: Activity (OCI-AML2) | Activity (DU-145) | Activity (MDA-MB-468)

CC(C)CNc1nc(NCc2ccc(C3CCCCC3)cc2)nc2c1ncn2CC(=O)OCOC(=O)C(C)(C)C
inactive: Activity (OCI-AML2) | Activity (DU-145) | Activity (MDA-MB-468)

CCOC(=O)Cn1cnc2c(N3CCOCC3)nc(NC(=O)C3CCCCC3)nc21
inactive: Activity (OCI-AML2) | Activity (DU-145) | Activity (MDA-MB-468)

CC(C)(C)C(=O)OCOC(=O)Cn1cnc2c(NC3CCCC3)nc(NCc3ccc(C4CCCCC4)cc3)nc21
inactive: Activity (OCI-AML2) | Activity (DU-145) | Activity (MDA-MB-468)
